# From patent US5082841A, “3-carbonyl-4-amino-8-substituted quinoline compounds useful in inhibiting gastric acid secretions” (SmithKline Beecham Intercredit B.V., priority 1989, dated 1992)
# Molecular target: T1, H+ K+ ATPase (lyophilised gastric vesicles) (Sus scrofa, UniProt P19156)
# T1 construct: Lyophilised gastric vesicles were prepared from pig fundic mucosa; from tissue; host or cells: pig fundic mucosa (lyophilised gastric vesicles)
# Assay: K+-stimulated ATPase activity in lyophilised gastric vesicles
# Format: biochemical
# Conditions: lyophilised gastric vesicles from pig fundic mucosa, 37° C., pH 7.0, 1 mM KCl, 30 minutes incubation
# Description: The effects of a single high concentration (100 μM) of a compound of structure (I) on K-stimulated ATPase activity in lyophilised gastric vesicles was determined. Preferred compounds of structure (I) were also tested over a range of concentrations to determine IC50 values.
# (i) Preparation of lyophilised gastric vesicles (H/K-ATPase)
# Lyophilised gastric vesicles were prepared from pig fundic mucosa after the method of Keeling et. al. (Biochem. Pharmacol., 34, 2967, 1985).
# (ii) K^+ -stimulated ATPase activity.
# K^+ -stimulated ATPase activity was determined at 37° C. in the presence of the following : I0 mM Pipes/Tris buffer pH 7.0, 2 mM MgSO4, 1 mM KCl, 2 mM Na2 ATP and 3-6 μg protein/ml lyophilised gastric vesicles. After incubation for 30 minutes, the inorganic phosphate hydrolysed from ATP was determined by the method of Yoda and Hokin (Biochem. Biophys. Res. Commun. 40, 880, 1970).
# Compounds of structure (I) were dissolved in dimethylsulphoxide which up to the highest concentration used had no effect on K+-stimulated ATPase activity.
# The effect of the highest concentration of each compound of structure (I) on the recovery of a standard amount of inorganic phosphate wa also determined.
# T1 sequence (P19156 2-1034 limits assumed): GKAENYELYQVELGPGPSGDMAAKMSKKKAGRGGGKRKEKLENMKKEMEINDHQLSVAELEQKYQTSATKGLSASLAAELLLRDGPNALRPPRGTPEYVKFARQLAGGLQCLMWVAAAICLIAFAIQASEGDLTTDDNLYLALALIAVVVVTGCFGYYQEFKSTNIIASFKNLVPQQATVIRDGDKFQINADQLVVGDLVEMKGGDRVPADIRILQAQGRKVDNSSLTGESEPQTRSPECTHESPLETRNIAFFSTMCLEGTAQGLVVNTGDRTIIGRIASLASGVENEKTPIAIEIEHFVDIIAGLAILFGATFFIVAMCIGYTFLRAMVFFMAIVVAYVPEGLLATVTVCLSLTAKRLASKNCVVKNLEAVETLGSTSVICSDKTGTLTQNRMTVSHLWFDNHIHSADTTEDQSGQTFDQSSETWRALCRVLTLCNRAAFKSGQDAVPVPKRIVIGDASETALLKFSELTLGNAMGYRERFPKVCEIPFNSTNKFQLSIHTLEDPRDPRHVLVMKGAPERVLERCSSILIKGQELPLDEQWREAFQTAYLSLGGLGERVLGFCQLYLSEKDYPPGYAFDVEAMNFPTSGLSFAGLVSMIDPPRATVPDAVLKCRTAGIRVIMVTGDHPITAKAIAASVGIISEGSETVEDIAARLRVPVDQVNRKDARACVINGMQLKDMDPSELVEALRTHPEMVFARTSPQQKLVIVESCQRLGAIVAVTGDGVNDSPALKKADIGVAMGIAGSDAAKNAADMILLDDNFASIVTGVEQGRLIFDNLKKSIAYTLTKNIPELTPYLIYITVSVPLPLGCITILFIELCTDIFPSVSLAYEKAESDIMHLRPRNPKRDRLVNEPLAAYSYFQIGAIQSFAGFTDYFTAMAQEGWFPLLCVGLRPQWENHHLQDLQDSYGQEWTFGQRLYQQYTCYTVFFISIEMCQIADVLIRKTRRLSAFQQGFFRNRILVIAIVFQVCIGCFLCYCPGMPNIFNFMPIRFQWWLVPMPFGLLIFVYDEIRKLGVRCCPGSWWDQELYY
# T1 sequence (P18434 whole entry partner): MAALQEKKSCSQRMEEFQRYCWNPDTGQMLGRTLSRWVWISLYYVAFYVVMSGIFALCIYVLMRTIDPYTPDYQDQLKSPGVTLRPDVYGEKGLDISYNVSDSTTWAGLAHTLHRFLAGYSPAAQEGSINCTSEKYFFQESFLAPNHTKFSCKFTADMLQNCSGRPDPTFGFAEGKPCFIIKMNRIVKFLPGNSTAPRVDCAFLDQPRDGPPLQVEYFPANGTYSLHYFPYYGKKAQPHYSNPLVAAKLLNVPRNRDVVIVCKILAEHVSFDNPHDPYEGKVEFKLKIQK
row,IC50 [nM],Structure (SMILES)
1,390 to 3520,"CCCC(=O)c1cnc2c(C(O)CN3CCOCC3)cccc2c1Nc1ccccc1C (centres unmarked) [Example 7, 3-butyryl-4-(2-methylphenylamino)-8-(1-hydroxy-2-(1-morpholino)ethyl)quinoline]"
2,390 to 3520,"CCCC(=O)c1cnc2c(OCCCN3CCCC3)cccc2c1Nc1ccccc1C [Example 4, 3-butyryl-4-(2-methylphenylamino)-8-(3-(1-pyrrolidinyl)propoxy)quinoline]"
3,390 to 3520,"CCCC(=O)c1cnc2c(NCCCN3CCOCC3)cccc2c1Nc1ccccc1C [Example 11, 3-butyryl-4-(2-methylphenylamino)-8-(3-morpholinopropylamino)quinoline]"
4,390 to 3520,"CCCC(=O)c1cnc2c(OCCCN3CCOCC3)cccc2c1Nc1ccccc1C [Example 6, 3-butyryl-4-(2-methylphenylamino)-8-(3-morpholinopropoxy)quinoline]"

# Continued, compound first:
row,Structure (SMILES),IC50 [nM]
1,"CCCC(=O)c1cnc2c(C(O)CN(C)C)cccc2c1Nc1ccccc1C (centres unmarked) [Example 8, 3-butyryl-4-(2-methylphenylamino)-8-(1-hydroxy-2-dimethylaminoethyl)quinoline]",390 to 3520
2,"CCCC(=O)c1cnc2c(OCCCN(C)Cc3ccccc3)cccc2c1Nc1ccccc1C [Example 9, 3-butyryl-4-(2-methylphenylamino)-8-(3-(N-benzyl-N-methylamino)propoxy)quinoline]",390 to 3520
3,"CCCC(=O)c1cnc2c(OCCN(C)C)cccc2c1Nc1ccccc1C [Example 3, 3-butyryl-4-(2-methylphenylamino)-8-(2-dimethylaminoethoxy)quinoline]",390 to 3520
4,"CCCC(=O)c1cnc2c(OCCCN3CCCCC3)cccc2c1Nc1ccccc1C [Example 5, 3-butyryl-4-(2-methylphenylamino)-8-(3-piperidinopropoxy)quinoline]",390 to 3520
5,"CCCC(=O)c1cnc2c(OCCCN(C)C)cccc2c1Nc1ccc(F)cc1C [Example 2, 3-butyryl-4-(4-fluoro-2-methylphenylamino)-8-(3-dimethylaminopropoxy)quinoline]",390 to 3520
6,"CCCC(=O)c1cnc2c(OCCCN(C)CCCc3ccccc3)cccc2c1Nc1ccccc1C [Example 10, 3-butyryl-4-(2-methylphenylamino)-8-(3-(N-methyl-N-(3-phenylpropyl)amino)propoxy)quinoline]",390 to 3520
7,"CCCC(=O)c1cnc2c(OCCCN(C)C)cccc2c1Nc1ccccc1C [Example 1, 3-butyryl-4-(2-methylphenylamino)-8-(3-dimethylaminopropoxy)quinoline]",390 to 3520
